Earlier results on one molecule are cited in PMC9569940, “Discovery and In Vivo Efficacy of Trace Amine-Associated Receptor 1 (TAAR1) Agonist 4-(2-Aminoethyl)-N-(3,5-dimethylphenyl)piperidine-1-carboxamide Hydrochloride (AP163) for the Treatment of Psychotic Disorders” (International Journal of Molecular Sciences, 2022).

The target of the data set is T1, TAAR1 (Homo sapiens, UniProt Q96RJ0).
T1 construct: expressed in transfected cells; host or cells: HEK-293 cells, transient transfection
T1 sequence (Q96RJ0 1-339): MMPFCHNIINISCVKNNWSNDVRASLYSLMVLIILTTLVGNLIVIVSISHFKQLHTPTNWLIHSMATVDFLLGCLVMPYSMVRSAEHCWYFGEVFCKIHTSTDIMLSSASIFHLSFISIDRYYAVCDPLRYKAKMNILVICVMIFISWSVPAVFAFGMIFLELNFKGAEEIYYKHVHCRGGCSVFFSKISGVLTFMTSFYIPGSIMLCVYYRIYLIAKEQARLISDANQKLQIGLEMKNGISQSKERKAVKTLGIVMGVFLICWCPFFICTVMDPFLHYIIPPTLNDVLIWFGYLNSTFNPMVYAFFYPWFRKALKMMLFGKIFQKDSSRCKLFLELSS
Also noted: method as in PMID 11723224. The note with it: not tested in this paper; cited from earlier work.

For the molecule `CCc1[nH]nc(C(=O)Nc2ccc([C@H]3CNCCO3)cc2)c1C` [Ralmitaront], the “TAAR1 Activity (reference ligand)” value is recorded as “Active”.
